PubChem BioAssay AID2060907 (Molecular Pharmacology Branch, DTP, NCI, 2025)

System: 388556-164-R-J1-PDC complex spheroid viability
Experiment: Anticancer human tumor 388556-164-R-J1-PDC patient-derived colon adenocarcinoma cell line growth inhibition [RAS]
Conditions: for IC50: curve of first compound; for viability, T/C: stronger effect = lower value
Procedure, shortened: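 Multi-cell-type spheroids: tumor cells plus HUVEC endothelial cells and mesenchymal stem cells. RAS-pathway inhibitors were combined with targeted agents, each dosed in half-log steps down from clinical Cmax, or from 10 microM when Cmax was unknown.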
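Further: spheroids exposed to compound for 7 days before readout.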
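Wherever viability, T/C is given: 100% = DMSO vehicle control luminescence.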

With `CCc1c2c(nc3ccc(O)cc13)-c1cc3c(c(=O)n1C2)COC(=O)[C@]3(O)CC` + C#Cc1c(F)ccc2cc(O)cc(-c3ncc4c(N5CC6CCC(C5)N6)nc(OCC56CCCN5CC(F)C6)nc4c3F)c12 the IC50 (second compound 0.0316 µM) was 94.1 nM, the IC50 (second compound 0.1 µM) was 104 nM and the IC50 (second compound 0.316 µM) was 97.8 nM. The IC50 (second compound 1 µM) was 78.1 nM, the IC50 (second compound 3.16 µM) was 85.6 nM and the IC50 (second compound 10 µM) was 42.8 nM. For the same compound, the viability, T/C (second compound 0.0316 µM, first compound 0.000949 µM) was 94.4%, the viability, T/C (second compound 0.0316 µM, first compound 0.003 µM) was 96.1% and the viability, T/C (second compound 0.0316 µM, first compound 0.00949 µM) was 83.6%. For the same compound, the viability, T/C (second compound 0.0316 µM, first compound 0.03 µM) was 69%, the viability, T/C (second compound 0.0316 µM, first compound 0.0949 µM) was 50.4% and the viability, T/C (second compound 0.0316 µM, first compound 0.3 µM) was 36.2%. For the same compound, the viability, T/C (second compound 0.1 µM, first compound 0.000949 µM) was 108%, the viability, T/C (second compound 0.1 µM, first compound 0.003 µM) was 82.4% and the viability, T/C (second compound 0.1 µM, first compound 0.00949 µM) was 84.4%. For the same compound, the viability, T/C (second compound 0.1 µM, first compound 0.03 µM) was 70.3%, the viability, T/C (second compound 0.1 µM, first compound 0.0949 µM) was 52.6% and the viability, T/C (second compound 0.1 µM, first compound 0.3 µM) was 31.6%. For the same compound, the viability, T/C (second compound 0.316 µM, first compound 0.000949 µM) was 93.6%, the viability, T/C (second compound 0.316 µM, first compound 0.003 µM) was 94.8% and the viability, T/C (second compound 0.316 µM, first compound 0.00949 µM) was 71.4%. It also gave a viability, T/C (second compound 0.316 µM, first compound 0.03 µM) of 67.2%, a viability, T/C (second compound 0.316 µM, first compound 0.0949 µM) of 55.8% and a viability, T/C (second compound 0.316 µM, first compound 0.3 µM) of 25.5%. It also gave a viability, T/C (second compound 1 µM, first compound 0.000949 µM) of 92.1%, a viability, T/C (second compound 1 µM, first compound 0.003 µM) of 89% and a viability, T/C (second compound 1 µM, first compound 0.00949 µM) of 60.5%. It also gave a viability, T/C (second compound 1 µM, first compound 0.03 µM) of 71.4%, a viability, T/C (second compound 1 µM, first compound 0.0949 µM) of 50.5% and a viability, T/C (second compound 1 µM, first compound 0.3 µM) of 23.3%. For the same compound, the viability, T/C (second compound 3.16 µM, first compound 0.000949 µM) was 80.2%, the viability, T/C (second compound 3.16 µM, first compound 0.003 µM) was 72.8% and the viability, T/C (second compound 3.16 µM, first compound 0.00949 µM) was 66.2%. It also gave a viability, T/C (second compound 3.16 µM, first compound 0.03 µM) of 60.1%, a viability, T/C (second compound 3.16 µM, first compound 0.0949 µM) of 53.8% and a viability, T/C (second compound 3.16 µM, first compound 0.3 µM) of 20.8%. For the same compound, the viability, T/C (second compound 10 µM, first compound 0.000949 µM) was 72.4%, the viability, T/C (second compound 10 µM, first compound 0.003 µM) was 61.4% and the viability, T/C (second compound 10 µM, first compound 0.00949 µM) was 63%. It also gave a viability, T/C (second compound 10 µM, first compound 0.03 µM) of 55.1%, a viability, T/C (second compound 10 µM, first compound 0.0949 µM) of 41.1% and a viability, T/C (second compound 10 µM, first compound 0.3 µM) of 20.6%.
